# Results taken from ChEMBL document CHEMBL2176988 (J Med Chem, 2012).
# Columns and labels:
# [1] = biological target: T1, Neuronal acetylcholine receptor; alpha3/beta4 (Homo sapiens, UniProt P30926+P32297); assay: Displacement of [3H]epibatidine from human alpha3beta4 nAChR expressed in CHO cells after 2 hrs by liquid scintillation counting; type: cell-based
# [2] = biological target: T2, Neuronal acetylcholine receptor; alpha4/beta2 (Homo sapiens, UniProt P17787+P43681); assay: Displacement of [3H]nicotine from alpha4beta2 nAChR in human SH-EP1 cells after 2 hrs by liquid scintillation assay; type: cell-based
# [3] = biological target: T2, Neuronal acetylcholine receptor; alpha4/beta2; assay: Partial agonist activity at alpha4beta2 nAChR in human SH-EP1 cells assessed as calcium flux by calcium4-based FLIPR assay relative to nicotine; type: functional, cell-based
# [4] = biological target: T1, Neuronal acetylcholine receptor; alpha3/beta4; assay: Agonist activity at human alpha3beta4 nAChR expressed in CHO cells assessed as calcium flux by calcium4-based FLIPR assay; type: functional, cell-based
# [5] = biological target: T2, Neuronal acetylcholine receptor; alpha4/beta2; assay: Partial agonist activity at alpha4beta2 nAChR in human SH-EP1 cells assessed as calcium flux by calcium4-based FLIPR assay; type: functional, cell-based
# [6] = biological target: T1, Neuronal acetylcholine receptor; alpha3/beta4; assay: Agonist activity at human alpha3beta4 nAChR expressed in CHO cells assessed as calcium flux by calcium4-based FLIPR assay relative to nicotine; type: functional, cell-based
# [7] = biological target: Neuronal acetylcholine receptor; alpha4/beta2 (Rattus norvegicus, UniProt P09483+P12390); assay: Displacement of [3H]epibatidine from alpha4beta2 nAChR in Sprague-Dawley rat cortex after 2 hrs by liquid scintillation counting
# [8] = biological target: Neuronal acetylcholine receptor subunit alpha-7 (Homo sapiens, UniProt P36544); assay: Displacement of [3H]epibatidine from human alpha7 nAChR expressed in CHO cells after 2 hrs by liquid scintillation counting; type: cell-based
# [9] = biological target: T2, Neuronal acetylcholine receptor; alpha4/beta2; assay: Binding affinity to alpha4beta2 nAChR; type: protein-complex assay
# [10] = biological target: T1, Neuronal acetylcholine receptor; alpha3/beta4; assay: Displacement of [3H]epibatidine from alpha3beta4 nAChR in human SH-SY5Y cells after 2 hrs by liquid scintillation counting; type: cell-based
# [11] = biological target: T2, Neuronal acetylcholine receptor; alpha4/beta2; assay: Agonist activity at alpha4beta2 nAChR in human SH-EP1 cells assessed as calcium flux by calcium4-based FLIPR assay relative to nicotine; type: functional, cell-based
# [12] = biological target: T2, Neuronal acetylcholine receptor; alpha4/beta2; assay: Agonist activity at alpha4beta2 nAChR in human SH-EP1 cells assessed as calcium flux by calcium4-based FLIPR assay; type: functional, cell-based
# [13] = biological target: T2, Neuronal acetylcholine receptor; alpha4/beta2; assay: Binding affinity to human alpha4beta2 nAChR expressed in xenopus oocyte
# [14] = biological target: T2, Neuronal acetylcholine receptor; alpha4/beta2; assay: Apparent antagonist activity at alpha4beta2 nAChR in human SH-EP1 cells assessed as inhibition of nicotine-induced calcium flux by calcium4-based FLIPR assay relative to control; type: functional, cell-based
# [15] = biological target: T2, Neuronal acetylcholine receptor; alpha4/beta2; assay: Apparent antagonist activity at alpha4beta2 nAChR in human SH-EP1 cells assessed as inhibition of nicotine-induced calcium flux by calcium4-based FLIPR assay; type: functional, cell-based
# T2 sequence (P17787 whole entry): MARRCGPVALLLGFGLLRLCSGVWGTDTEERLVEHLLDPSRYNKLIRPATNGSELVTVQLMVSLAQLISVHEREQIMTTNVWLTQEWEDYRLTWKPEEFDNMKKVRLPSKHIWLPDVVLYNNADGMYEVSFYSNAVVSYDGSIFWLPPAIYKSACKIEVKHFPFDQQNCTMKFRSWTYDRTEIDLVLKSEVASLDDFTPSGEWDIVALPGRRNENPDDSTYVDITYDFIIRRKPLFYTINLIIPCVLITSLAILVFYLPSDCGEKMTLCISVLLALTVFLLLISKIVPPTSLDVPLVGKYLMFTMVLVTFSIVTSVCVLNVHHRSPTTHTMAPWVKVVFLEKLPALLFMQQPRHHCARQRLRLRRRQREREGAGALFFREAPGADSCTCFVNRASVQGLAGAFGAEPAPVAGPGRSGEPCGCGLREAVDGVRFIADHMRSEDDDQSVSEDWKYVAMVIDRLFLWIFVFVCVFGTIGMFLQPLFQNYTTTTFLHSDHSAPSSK
# T2 sequence (P43681 whole entry): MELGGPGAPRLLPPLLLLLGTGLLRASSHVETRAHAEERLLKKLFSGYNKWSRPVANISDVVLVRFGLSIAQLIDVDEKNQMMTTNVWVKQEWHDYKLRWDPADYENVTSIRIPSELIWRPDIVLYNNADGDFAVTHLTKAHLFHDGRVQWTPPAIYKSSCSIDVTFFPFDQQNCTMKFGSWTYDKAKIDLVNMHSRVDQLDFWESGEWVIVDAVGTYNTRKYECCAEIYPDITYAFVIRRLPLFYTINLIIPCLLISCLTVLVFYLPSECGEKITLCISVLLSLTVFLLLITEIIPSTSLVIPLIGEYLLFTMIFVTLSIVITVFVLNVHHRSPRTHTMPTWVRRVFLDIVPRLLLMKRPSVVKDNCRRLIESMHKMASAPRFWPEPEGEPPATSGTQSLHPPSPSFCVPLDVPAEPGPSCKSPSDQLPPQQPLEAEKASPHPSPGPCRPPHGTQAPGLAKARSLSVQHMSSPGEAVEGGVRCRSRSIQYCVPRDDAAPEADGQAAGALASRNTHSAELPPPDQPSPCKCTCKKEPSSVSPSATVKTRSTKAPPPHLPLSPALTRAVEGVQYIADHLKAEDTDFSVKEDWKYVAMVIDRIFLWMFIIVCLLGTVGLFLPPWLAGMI
# Chain of Neuronal acetylcholine receptor; alpha4/beta2 (Rattus norvegicus, UniProt P09483+P12390) (P09483 whole entry): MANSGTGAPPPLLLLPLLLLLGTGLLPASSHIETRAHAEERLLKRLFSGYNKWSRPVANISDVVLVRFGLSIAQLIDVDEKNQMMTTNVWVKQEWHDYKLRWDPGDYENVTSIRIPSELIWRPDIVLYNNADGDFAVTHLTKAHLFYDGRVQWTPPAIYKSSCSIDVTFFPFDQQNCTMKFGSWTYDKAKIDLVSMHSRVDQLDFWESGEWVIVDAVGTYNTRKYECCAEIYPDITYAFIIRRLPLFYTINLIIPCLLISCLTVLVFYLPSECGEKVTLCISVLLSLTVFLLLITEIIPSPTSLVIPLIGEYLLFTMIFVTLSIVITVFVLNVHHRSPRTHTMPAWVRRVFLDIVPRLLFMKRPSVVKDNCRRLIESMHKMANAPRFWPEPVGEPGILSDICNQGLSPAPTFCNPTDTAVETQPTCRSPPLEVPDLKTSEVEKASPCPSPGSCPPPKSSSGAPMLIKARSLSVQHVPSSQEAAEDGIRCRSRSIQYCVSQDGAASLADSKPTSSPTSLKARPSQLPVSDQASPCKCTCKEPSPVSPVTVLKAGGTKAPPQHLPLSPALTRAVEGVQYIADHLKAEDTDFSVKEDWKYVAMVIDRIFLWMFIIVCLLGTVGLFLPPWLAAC
# Chain of Neuronal acetylcholine receptor; alpha4/beta2 (Rattus norvegicus, UniProt P09483+P12390) (P12390 whole entry): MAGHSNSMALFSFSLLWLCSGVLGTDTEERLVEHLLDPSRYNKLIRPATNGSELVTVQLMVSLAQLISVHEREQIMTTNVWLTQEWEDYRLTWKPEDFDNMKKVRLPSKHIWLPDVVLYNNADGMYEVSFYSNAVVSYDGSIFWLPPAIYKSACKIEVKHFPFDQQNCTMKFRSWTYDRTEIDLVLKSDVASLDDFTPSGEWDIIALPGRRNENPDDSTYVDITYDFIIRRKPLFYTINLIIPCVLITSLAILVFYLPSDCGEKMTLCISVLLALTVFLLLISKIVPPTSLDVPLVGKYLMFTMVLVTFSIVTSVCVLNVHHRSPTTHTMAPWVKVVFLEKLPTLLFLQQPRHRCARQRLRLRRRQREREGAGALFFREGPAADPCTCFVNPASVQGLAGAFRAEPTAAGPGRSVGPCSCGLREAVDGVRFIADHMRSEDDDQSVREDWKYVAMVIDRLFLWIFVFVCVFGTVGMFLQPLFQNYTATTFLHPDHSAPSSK
# T1 sequence (P30926 whole entry): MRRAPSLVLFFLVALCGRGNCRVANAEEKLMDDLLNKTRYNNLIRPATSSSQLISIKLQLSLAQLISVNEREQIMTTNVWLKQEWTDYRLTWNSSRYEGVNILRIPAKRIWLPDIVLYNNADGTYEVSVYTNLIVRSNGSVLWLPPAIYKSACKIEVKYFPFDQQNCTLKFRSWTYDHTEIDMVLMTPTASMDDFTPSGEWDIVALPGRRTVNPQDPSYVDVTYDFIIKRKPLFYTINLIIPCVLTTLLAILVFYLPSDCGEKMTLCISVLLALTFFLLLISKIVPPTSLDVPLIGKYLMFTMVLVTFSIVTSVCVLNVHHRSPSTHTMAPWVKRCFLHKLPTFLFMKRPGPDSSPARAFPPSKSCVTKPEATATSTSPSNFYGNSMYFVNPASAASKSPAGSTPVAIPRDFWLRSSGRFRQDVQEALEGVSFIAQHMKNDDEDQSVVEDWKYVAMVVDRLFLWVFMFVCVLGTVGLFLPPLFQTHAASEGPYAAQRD
# T1 sequence (P32297 whole entry): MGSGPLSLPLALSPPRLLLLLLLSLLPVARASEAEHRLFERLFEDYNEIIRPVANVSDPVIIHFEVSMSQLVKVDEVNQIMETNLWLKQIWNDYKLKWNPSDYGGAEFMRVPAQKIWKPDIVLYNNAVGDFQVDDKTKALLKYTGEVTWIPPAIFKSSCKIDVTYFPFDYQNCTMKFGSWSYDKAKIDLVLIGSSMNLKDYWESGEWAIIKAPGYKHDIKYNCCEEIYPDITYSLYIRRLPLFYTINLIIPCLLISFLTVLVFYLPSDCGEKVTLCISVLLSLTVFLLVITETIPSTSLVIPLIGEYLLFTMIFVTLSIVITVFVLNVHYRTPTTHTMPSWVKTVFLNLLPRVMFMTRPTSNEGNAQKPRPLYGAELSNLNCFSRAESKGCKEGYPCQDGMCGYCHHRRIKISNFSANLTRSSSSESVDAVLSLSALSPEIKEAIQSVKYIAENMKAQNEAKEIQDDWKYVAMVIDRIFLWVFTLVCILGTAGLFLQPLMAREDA
# Chain of Neuronal acetylcholine receptor subunit alpha-7 (P36544 whole entry): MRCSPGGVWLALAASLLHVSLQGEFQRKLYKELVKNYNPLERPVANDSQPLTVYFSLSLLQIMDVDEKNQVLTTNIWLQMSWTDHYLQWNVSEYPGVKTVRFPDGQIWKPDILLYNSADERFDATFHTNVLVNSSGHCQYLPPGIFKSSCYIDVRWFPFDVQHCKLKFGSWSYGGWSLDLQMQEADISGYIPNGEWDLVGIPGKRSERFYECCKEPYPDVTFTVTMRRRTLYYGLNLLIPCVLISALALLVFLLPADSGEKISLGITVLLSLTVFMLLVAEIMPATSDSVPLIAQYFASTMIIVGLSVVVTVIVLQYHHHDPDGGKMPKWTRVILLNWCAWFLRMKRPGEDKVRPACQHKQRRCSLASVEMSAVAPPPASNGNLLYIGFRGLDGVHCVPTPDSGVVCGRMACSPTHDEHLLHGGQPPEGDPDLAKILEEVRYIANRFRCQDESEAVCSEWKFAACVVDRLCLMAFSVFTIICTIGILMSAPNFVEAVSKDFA
Compound,Ki [1] [µM],Ki [2] [µM],Emax [3] [%],EC50 [4] [µM],EC50 [5] [µM],Emax [6] [%],Ki [7] [µM],Ki [8] [µM],Ki [9] [µM],Ki [10] [µM],Emax [11] [%],EC50 [12] [µM],Ki [13] [µM],Imax [14] [%],IC50 [15] [µM]
O=C(c1ccc(F)o1)N1CC2CNCC(C2)C1,1.1,0.003,73,9.1,0.3,110,0.015,4.7,,,,,,,
N#Cc1ccc(C(=O)N2CC3CNCC(C3)C2)o1,21,0.008,58,34,7.1,64,0.078,> 10,,,,,,,
c1cncc(N2CC3CNCC(C3)C2)c1,,,,,,,,,0.0002,,,,,,
Cc1ccc(C(=O)N2CC3CNCC(C3)C2)o1,> 10,0.046,19,37,8.5,11,0.24,> 10,,,,,,,
N#Cc1coc(C(=O)N2CC3CNCC(C3)C2)c1,> 10,0.033,20,35,110,19,,> 10,,,,,,,
O=C(c1cc(F)co1)N1CC2CNCC(C2)C1,3.2,0.022,66,22,0.8,93,,> 10,,,,,,,
CCC(=O)C1=CCCN(C)C1 [ARECOLON],,,,,,,,,0.0058,,,,,,
O=C(c1cc(Cl)co1)N1CC2CNCC(C2)C1,6.6,0.005,11,54,100,27,0.04,> 10,,,,,,,
CCOc1cncc(/C=C/CCNC)c1,,0.012,,20,,10,0.006,71,,7,57,0.17,,,
CN1CCC=C(c2ccc(Cl)nc2)C1,,,,,,,,,0.0022,,,,,,
O=C(c1occc1Br)N1CC2CNCC(C2)C1,6.5,0.023,8,24,8.6,20,0.13,> 10,,,,,,,
CC(=O)/C=C1\CN2CCC1CC2,,,,,,,,,,,,,0.013,,
O=C(c1ccc(Oc2ccccc2)cc1)N1CC2CNCC2C1 (stereo unspecified),14,0.019,,25,,12,0.039,13,,,9,51,,94,7.8
